Source: patent publication US6590123B2, “Aminobenzoic acid derivatives having anti-tumorigenic activity, methods of making and using the same” (Mount Sinai School of Medicine of New York University, priority 1998, dated 2003)
Where a name gives a salt, the structure may show the parent alone.

Legend:
[1] = tested on: P338 leukemia lymphoma cells; assay: Survival and ED50 in mice implanted i.p. with P338 lymphoma; type: in vivo, male C57 BL/6JX mice; details: for Survival IL % / Survival Mean ± SD: P338 Lymphoma (i.p.); for ED50: P338 leukemia lymphoma i.p. in mice, drug i.p. on days 2 and 8
Procedure: FIG. 9 is a plot graph of the survival rate of male C57 BL/6JX mice implanted (i.p.) with P338 lymphoma, from 10 to 40 days after implantation. Two groups were used for the study: a control group of ten and a test group of ten that were treated with 20 mg/kg, (i.p.) of compound 8 at 2 and 8 days post-implantation.
(§1) The in vivo efficacy of 3-BAABU and 3-IAABU of the present invention was asssessed in a murine model, along with known anti-tubule agents, vinblastine and paclitaxel, as a comparative standard. Approximately 10^6 P338 leukemia lymphoma cells/mouse were implanted intra-peritoneal (i.p.) into male C57 BL/6JX mice (Jackson Laboratories, N.Y.). On days 2 and 8 post-implantation, drugs were administrated i.p. at the following concentration ranges: 3-BAABU from 16.6 to 116 μmole/kg, 3-IAABU from 14.4 to 101 μmole/kg, vinblastine from 2.2 to 20 μmole/kg and paclitaxel from 28 to 57 μmole/kg.
(§2) Both control and treated animals were examined for ascitic tumor burden daily for 35 days. […] Therapeutic index was defined as the ratio of LD50 (lethal dose) to ED50 (effective dose).

[2] = LD50 (lethal dose) in mice; details: mice, i.p.
Excerpt: as §1, §2

[3] = tested on: repolymerized microtubules; assay: Inhibition of microtubule disassembly by spectrophotometry, cell free system; type: biochemical, calf; details: 23 μM
Procedure: Purified tubulin was purchased from Sigma (St. Louis, Mo.). The effects of compounds 6, 7, 8, 9, paclitaxel and vinblastine on the microtubule assembly-disassembly process were determined using conditions recommended by the vendor. For assembly inhibition, 100 μl tubulin solution (500-600 μg protein/ml) was mixed gently with 400 μl reaction buffer containing 0.1 M MES (2-[N-morpholino]ethane sulfonic acid), 1 mM EGTA ([…]-N,N,N′,N′-tetraacetic acid), 0.5 mM MgCl2, 0.1 mM EDTA and 2.5 M gycerol at 37° C. Compounds 6, 7, 8, and 9 were next added to each sample at final concentrations of 10, 10, 1 and 1 μg/ml, respectively. After adding GTP to each sample to a final concentration of 1 mM, the microtubule assembly process was monitored by measuring the change of absorbance (OD) at 350 nm on a spectrophotometer (Ultrospec III, Pharmacia LKB, Uppsala, Sweden). […] Changes of absorbance (OD) were monitored at 350 nm for 30 min until the OD values in the controls returned to the starting level, i.e., when the assembly-disassembly cycle was completed.
Purified tubulin from calf brain was purchased from Sigma (St. Louis, Mo.). The effects of 3-BAABU (3-bromoacetoamido, benzoylurea) on the microtubule assembly-disassembly process were determined using the conditions recommended by the vendor. […]

[4] = tested on: Purified tubulin; assay: Inhibition of microtubule assembly by spectrophotometry, cell free system; type: biochemical, calf; details: 23 μM
Procedure: Purified tubulin was purchased from Sigma (St. Louis, Mo.). The effects of compounds 6, 7, 8, 9, paclitaxel and vinblastine on the microtubule assembly-disassembly process were determined using conditions recommended by the vendor. For assembly inhibition, 100 μl tubulin solution (500-600 μg protein/ml) was mixed gently with 400 μl reaction buffer containing 0.1 M MES (2-[N-morpholino]ethane sulfonic acid), 1 mM EGTA ([…]-N,N,N′,N′-tetraacetic acid), 0.5 mM MgCl2, 0.1 mM EDTA and 2.5 M gycerol at 37° C. Compounds 6, 7, 8, and 9 were next added to each sample at final concentrations of 10, 10, 1 and 1 μg/ml, respectively. After adding GTP to each sample to a final concentration of 1 mM, the microtubule assembly process was monitored by measuring the change of absorbance (OD) at 350 nm on a spectrophotometer (Ultrospec III, Pharmacia LKB, Uppsala, Sweden). A completed assembly process was observed within 40 min at room temperature. For disassembly inhibition, compounds 6, 7, 8, and 9 were added, at the above concentrations, to covets with repolymerized microtubules as described above, and incubated in melting ice. Changes of absorbance (OD) were monitored at 350 nm for 30 min until the OD values in the controls returned to the starting level, i.e., when the assembly-disassembly cycle was completed.
Purified tubulin from calf brain was purchased from Sigma (St. Louis, Mo.). The effects of 3-BAABU (3-bromoacetoamido, benzoylurea) on the microtubule assembly-disassembly process were determined using the conditions recommended by the vendor. For assembly inhibition, 100 μl tubulin solution (500-600 μg protein/ml) was mixed gently with 400 μl reaction buffer containing 0.1 M MES, 1 mM EGTA, 0.5 mM MgCl2, 0.1 mM EDTA and 2.5 M glycerol at 37° C. 3-BAABU, paclitaxel or vinblastine were then added to each sample cuvet at final concentrations of 3.3, 23 or 22 μM, respectively. After adding GTP to each sample to a final concentration of 1 mM, the microtubule assembly process was monitored by measuring the change of absorbance (OD) every 5 min at 350 nm on a spectrophotometer (Ultrospec III, Pharmacia LKB, Uppsala, Sweden). A completed assembly process was observed within 40 min at room temperature. For disassembly inhibition, 3-BAABU (3.3 μM), paclitaxel (23 μM) or vinblastine (22 μM) was added to a cuvet with repolymerized microtubules according to the method described above, and incubated in melting ice. Changes of absorbance (OD) were monitored at 350 nm for 30 min until the OD values in the controls returned to the starting level, i.e., completion of the assembly-disassembly cycle. Solvent solutions were used as control and had no effect in either the assembly or disassembly process.

In the case of `CC[C@]1(O)C[C@@H]2CN(CCc3c([nH]c4ccccc34)[C@@](C(=O)OC)(c3cc4c(cc3OC)N(C)[C@H]3[C@@](O)(C(=O)OC)[C@H](OC(C)=O)[C@]5(CC)C=CCN6CC[C@]43[C@@H]65)C2)C1` [Vinblastine, vinblastine sulfate], the “Survival IL %” value ([1]; 2 mg/kg ip on days 2 & 8) is reported as 21%, the “Survival Mean ± SD” value ([1]; 2 mg/kg ip on days 2 & 8, control 15.1 ± 2.3) is reported as 18.2 ± 6.3 and the ED50 [1] is reported as 4.5 µmol/kg. The LD50 [2] was 9.2 µmol/kg.
In the case of `CC(=O)O[C@H]1C(=O)[C@@]2(C)[C@H]([C@H](OC(=O)c3ccccc3)[C@]3(O)C[C@H](OC(=O)[C@H](O)[C@@H](NC(=O)c4ccccc4)c4ccccc4)C(C)=C1C3(C)C)[C@]1(OC(C)=O)CO[C@@H]1C[C@@H]2O` [Paclitaxel, reference compound], the “Survival IL %” value ([1]; 30 mg/kg ip on days 2 & 8) is reported as 10%, the “Survival Mean ± SD” value ([1]; 30 mg/kg ip on days 2 & 8, control 18.6 ± 1.1) is reported as 20.4 ± 3.2 and the ED50 [1] is reported as 37 µmol/kg. For the same compound, the “inhibition of microtubule depolymerization” value [3] was “significant inhibition”, the “activity on microtubular polymerization” value [4] was “no activity” and the LD50 [2] was 45 µmol/kg.
